Blank lines part the entries; values can stand above or below the compound they belong to.
What was measured:
Histone deacetylase 1 = Histone deacetylase 1 (Homo sapiens, UniProt Q13547); experiment: biochemical; format: cell-based
Description: Inhibition of recombinant His6/GST-tagged human HDAC1 expressed in baculovirus infected High5 insect cells using Ac-Lys-Tyr-Lys(epsilon-acetyl)-AMC as substrate after 24 hrs by fluorescence based assay

Histone deacetylase 2 = Histone deacetylase 2 (Homo sapiens, UniProt Q92769); experiment: biochemical; format: cell-based
Description: Inhibition of recombinant human His6/GST-tagged HDAC2 expressed in baculovirus infected High5 insect cells using Ac-Lys-Tyr-Lys(epsilon-acetyl)-AMC as susbtrate after 24 hrs by fluorescence based assay

Histone deacetylase 4 = Histone deacetylase 4 (Homo sapiens, UniProt P56524); experiment: biochemical; format: cell-based
Description: Inhibition of recombinant human His6/GST-tagged HDAC4 expressed in baculovirus infected High5 insect cells using Ac-Leu-Gly-Lys(Tfa)-AMC as substrate after 24 hrs by fluorescence based assay

Histone deacetylase 5 = Histone deacetylase 5 (Homo sapiens, UniProt Q9UQL6); experiment: biochemical; format: cell-based, Sf9
Description: Inhibition of recombinant N-terminal GST-tagged full length human HDAC5 expressed in baculovirus infected Sf9 cells using Ac-Leu-Gly-Lys(Tfa)-AMC as substrate after 24 hrs by fluorescence based assay

Histone deacetylase 7 = Histone deacetylase 7 (Homo sapiens, UniProt Q8WUI4); experiment: biochemical; format: cell-based, Sf9
Histone deacetylase 8 = Histone deacetylase 8 (Homo sapiens, UniProt Q9BY41); experiment: biochemical; format: cell-based
Description: Inhibition of recombinant human His6/GST-tagged HDAC8 expressed in baculovirus infected High5 insect cells using Ac-Lys-Tyr-Lys(epsilon-acetyl)-AMC as susbtrate after 24 hrs by fluorescence based assay

Histone deacetylase 9 = Histone deacetylase 9 (Homo sapiens, UniProt Q9UKV0); experiment: biochemical; format: cell-based, Sf9
Histone deacetylase 9, sequence (Q9UKV0 whole entry): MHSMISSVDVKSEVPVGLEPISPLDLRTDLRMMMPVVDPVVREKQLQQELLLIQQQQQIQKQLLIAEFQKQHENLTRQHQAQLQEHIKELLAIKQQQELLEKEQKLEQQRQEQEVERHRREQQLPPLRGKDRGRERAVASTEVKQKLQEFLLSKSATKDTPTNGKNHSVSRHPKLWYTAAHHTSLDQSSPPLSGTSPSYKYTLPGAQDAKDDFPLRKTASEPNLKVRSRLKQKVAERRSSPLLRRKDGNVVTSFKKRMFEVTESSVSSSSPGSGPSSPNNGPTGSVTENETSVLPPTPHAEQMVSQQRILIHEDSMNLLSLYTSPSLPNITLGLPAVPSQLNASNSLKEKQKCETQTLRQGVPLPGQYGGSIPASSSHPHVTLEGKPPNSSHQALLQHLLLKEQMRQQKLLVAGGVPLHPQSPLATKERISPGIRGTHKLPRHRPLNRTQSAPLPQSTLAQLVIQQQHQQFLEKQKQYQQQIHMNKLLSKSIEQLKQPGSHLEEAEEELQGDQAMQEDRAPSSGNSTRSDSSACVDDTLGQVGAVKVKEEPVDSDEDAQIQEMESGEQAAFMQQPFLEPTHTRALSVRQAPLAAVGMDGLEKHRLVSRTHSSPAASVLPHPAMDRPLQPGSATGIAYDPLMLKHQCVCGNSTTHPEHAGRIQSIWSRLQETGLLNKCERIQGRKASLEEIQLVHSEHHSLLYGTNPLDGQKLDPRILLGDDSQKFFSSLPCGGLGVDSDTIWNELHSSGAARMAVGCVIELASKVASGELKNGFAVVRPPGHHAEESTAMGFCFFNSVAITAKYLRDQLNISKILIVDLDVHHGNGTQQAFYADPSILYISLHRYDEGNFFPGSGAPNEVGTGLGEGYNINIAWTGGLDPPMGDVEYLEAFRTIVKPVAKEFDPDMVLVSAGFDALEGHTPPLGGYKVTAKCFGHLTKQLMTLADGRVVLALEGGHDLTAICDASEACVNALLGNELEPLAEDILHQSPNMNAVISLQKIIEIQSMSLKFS

[1] = molecular target: Polyamine deacetylase HDAC10 (Homo sapiens, UniProt Q969S8); experiment: biochemical; format: cell-based
Description: Inhibition of recombinant human His6/GST-tagged HDAC10 expressed in baculovirus infected High5 insect cells using Ac-Lys-Tyr-Lys(epsilon-acetyl)-AMC as susbtrate after 24 hrs by fluorescence based assay

Histone deacetylase 11 = Histone deacetylase 11 (Homo sapiens, UniProt Q96DB2); experiment: biochemical; format: cell-based
Histone deacetylase 11, sequence (Q96DB2 whole entry): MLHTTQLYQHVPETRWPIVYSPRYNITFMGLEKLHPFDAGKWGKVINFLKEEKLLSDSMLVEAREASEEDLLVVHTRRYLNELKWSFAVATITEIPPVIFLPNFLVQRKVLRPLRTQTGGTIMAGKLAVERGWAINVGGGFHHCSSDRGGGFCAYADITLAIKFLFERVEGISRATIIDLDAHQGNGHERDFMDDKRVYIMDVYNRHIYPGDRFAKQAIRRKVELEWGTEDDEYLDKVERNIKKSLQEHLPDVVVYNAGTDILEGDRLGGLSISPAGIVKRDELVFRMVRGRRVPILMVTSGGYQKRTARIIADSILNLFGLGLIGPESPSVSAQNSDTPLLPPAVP
Description: Inhibition of recombinant human His6/GST-tagged HDAC11 expressed in baculovirus infected High5 insect cells using Ac-Lys-Tyr-Lys(epsilon-acetyl)-AMC as susbtrate after 24 hrs by fluorescence based assay

[2] = molecular target: NAD-dependent protein deacetylase sirtuin-1 (Homo sapiens, UniProt Q96EB6)
NAD-dependent protein deacetylase sirtuin-1, sequence (Q96EB6 whole entry): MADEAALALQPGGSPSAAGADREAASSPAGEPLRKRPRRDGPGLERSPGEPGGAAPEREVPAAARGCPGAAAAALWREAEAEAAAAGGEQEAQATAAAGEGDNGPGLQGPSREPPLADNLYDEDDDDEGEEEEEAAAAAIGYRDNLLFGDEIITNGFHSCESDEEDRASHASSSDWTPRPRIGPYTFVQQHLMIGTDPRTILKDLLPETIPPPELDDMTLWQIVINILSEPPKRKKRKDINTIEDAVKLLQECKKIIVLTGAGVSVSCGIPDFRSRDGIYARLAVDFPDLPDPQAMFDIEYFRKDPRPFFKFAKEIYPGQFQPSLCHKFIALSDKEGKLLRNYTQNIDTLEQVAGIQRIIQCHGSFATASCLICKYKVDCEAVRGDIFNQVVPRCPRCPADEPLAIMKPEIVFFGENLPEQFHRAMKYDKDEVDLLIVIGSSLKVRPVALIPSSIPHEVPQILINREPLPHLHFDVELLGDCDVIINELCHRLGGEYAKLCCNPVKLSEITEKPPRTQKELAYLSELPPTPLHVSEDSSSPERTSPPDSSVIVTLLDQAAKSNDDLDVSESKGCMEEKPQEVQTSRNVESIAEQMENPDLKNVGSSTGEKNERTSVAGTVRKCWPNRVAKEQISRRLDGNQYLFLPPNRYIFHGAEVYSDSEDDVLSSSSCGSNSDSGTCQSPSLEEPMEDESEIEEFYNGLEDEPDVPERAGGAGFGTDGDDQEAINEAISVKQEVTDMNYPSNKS
Description: Inhibition of recombinant human N-terminal GST-tagged SIRT1 expressed in Escherichia coli using Ac-Arg-His-Lys-Lys(Ac)-AMC as susbtrate after 1 hr by fluorescence based assay

[3] = molecular target: NAD-dependent protein deacetylase sirtuin-2 (Homo sapiens, UniProt Q8IXJ6)
NAD-dependent protein deacetylase sirtuin-2, sequence (Q8IXJ6 whole entry): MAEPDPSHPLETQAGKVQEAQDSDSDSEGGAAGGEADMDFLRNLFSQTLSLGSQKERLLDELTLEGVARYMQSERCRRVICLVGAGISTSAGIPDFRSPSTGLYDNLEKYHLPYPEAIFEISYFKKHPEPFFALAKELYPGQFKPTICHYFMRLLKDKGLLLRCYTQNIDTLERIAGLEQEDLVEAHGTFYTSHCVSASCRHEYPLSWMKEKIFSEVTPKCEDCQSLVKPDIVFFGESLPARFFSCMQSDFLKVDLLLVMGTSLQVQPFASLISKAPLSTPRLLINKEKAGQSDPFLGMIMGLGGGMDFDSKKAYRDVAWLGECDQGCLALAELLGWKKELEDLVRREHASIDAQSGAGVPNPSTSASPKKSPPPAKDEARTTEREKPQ
Description: Inhibition of recombinant human N-terminal GST-tagged SIRT2 expressed in Escherichia coli using Ac-Arg-His-Lys-Lys(Ac)-AMC as susbtrate after 2 hrs by fluorescence based assay

[4] = molecular target: NAD-dependent protein deacetylase sirtuin-3, mitochondrial (Homo sapiens, UniProt Q9NTG7)
NAD-dependent protein deacetylase sirtuin-3, mitochondrial, sequence (Q9NTG7 whole entry): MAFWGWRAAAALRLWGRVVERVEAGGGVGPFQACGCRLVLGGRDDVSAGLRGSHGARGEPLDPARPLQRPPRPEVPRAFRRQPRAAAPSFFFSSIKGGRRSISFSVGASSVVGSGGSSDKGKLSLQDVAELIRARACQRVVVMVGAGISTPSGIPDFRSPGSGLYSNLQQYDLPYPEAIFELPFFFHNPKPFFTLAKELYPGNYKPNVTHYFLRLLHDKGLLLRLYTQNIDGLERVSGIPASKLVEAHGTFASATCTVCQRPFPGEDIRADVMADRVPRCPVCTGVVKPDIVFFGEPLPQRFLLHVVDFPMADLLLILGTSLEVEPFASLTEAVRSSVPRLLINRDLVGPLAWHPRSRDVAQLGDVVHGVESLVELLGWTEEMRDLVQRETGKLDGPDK
Description: Inhibition of recombinant human N-terminal His-tagged SIRT3 expressed in Escherichia coli using Ac-Arg-His-Lys-Lys(Ac)-AMC as susbtrate after 2 hrs by fluorescence based assay

Bel-7402 = experiment: cells; format: functional, cell-based; settings: Homo sapiens, Bel-7402, 72 h
Description: Antiproliferative activity against human Bel7402 cells assessed as reduction in cell growth after 72 hrs

NCI-H1975 = experiment: cells; format: functional, cell-based; settings: Homo sapiens, NCI-H1975, 72 h
Description: Antiproliferative activity against human NCI-H1975 cells assessed as reduction in cell growth after 72 hrs

EBC-1 = experiment: cells; format: functional, cell-based; settings: Homo sapiens, EBC-1, 72 h
Description: Antiproliferative activity against human EBC1 cells assessed as reduction in cell growth after 72 hrs

MCF7 = experiment: cells; format: functional, cell-based; settings: Homo sapiens, MCF7, 72 h
Description: Antiproliferative activity against human MCF7 cells assessed as reduction in cell growth after 72 hrs

MDA-MB-231 = experiment: cells; format: functional, cell-based; settings: Homo sapiens, MDA-MB-231, 72 h
Description: Antiproliferative activity against human MDA-MB-231 cells assessed as reduction in cell growth after 72 hrs

T47D = experiment: cells; format: functional, cell-based; settings: Homo sapiens, 72 h
Description: Antiproliferative activity against human T47D cells assessed as reduction in cell growth after 72 hrs

NCI-N87 = experiment: cells; format: functional, cell-based; settings: Homo sapiens, NCI-N87, 72 h
Description: Antiproliferative activity against human NCI-N87 cells assessed as reduction in cell growth after 72 hrs

HT-29 [5] = experiment: cells; format: functional, cell-based; settings: Homo sapiens, HT-29, 72 h
Description: Antiproliferative activity against human HT-29 cells assessed as reduction in cell growth after 72 hrs

HT-29 [6] = format: functional, Homo sapiens; settings: at 50 mg/kg
Description: Antitumor activity against human HT-29 cells xenografted in nude mouse assessed as reduction in tumor growth at 50 mg/kg, po qd for 21 days relative to control

HT-29 [7] = format: functional, Homo sapiens; settings: at 100 mg/kg
Description: Antitumor activity against human HT-29 cells xenografted in nude mouse assessed as reduction in tumor growth at 100 mg/kg, po qd for 21 days relative to control

HT-29 [8] = format: functional, Homo sapiens; settings: at 25 mg/kg
Description: Antitumor activity against human HT-29 cells xenografted in nude mouse assessed as reduction in tumor growth at 25 mg/kg, po qd for 21 days relative to control

[9] = mouse, in vivo
[10] = mouse, in vivo; remark: listed apart in the source
[11] = mouse, in vivo; remark: listed apart in the source
[12] = mouse, in vivo; remark: listed apart in the source
[13] = mouse, in vivo; remark: listed apart in the source
[14] = mouse, in vivo; remark: listed apart in the source
[15] = mouse, in vivo; remark: listed apart in the source
[16] = mouse, in vivo; remark: listed apart in the source
[17] = mouse, in vivo; remark: listed apart in the source
[18] = mouse, in vivo; remark: listed apart in the source
[19] = mouse, in vivo; remark: listed apart in the source
[20] = human, hepatocytes, 3 h, 3 µM
[21] = cynomolgus monkey, hepatocytes, 3 h, 3 µM
[22] = dog, hepatocytes, 3 h, 3 µM
[23] = rat, hepatocytes, 3 h, 3 µM
[24] = mouse, hepatocytes, 3 h, 3 µM
[25] = human, hepatocytes, 3 h, 3 µM; remark: listed apart in the source
[26] = cynomolgus monkey, hepatocytes, 3 h, 3 µM; remark: listed apart in the source
[27] = dog, hepatocytes, 3 h, 3 µM; remark: listed apart in the source
[28] = rat, hepatocytes, 3 h, 3 µM; remark: listed apart in the source
[29] = mouse, hepatocytes, 3 h, 3 µM; remark: listed apart in the source
[30] = human, hepatocytes, 3 h, 3 µM; remark: listed apart in the source
[31] = cynomolgus monkey, hepatocytes, 3 h, 3 µM; remark: listed apart in the source
[32] = dog, hepatocytes, 3 h, 3 µM; remark: listed apart in the source
[33] = rat, hepatocytes, 3 h, 3 µM; remark: listed apart in the source
[34] = mouse, hepatocytes, 3 h, 3 µM; remark: listed apart in the source
[35] = human, hepatocytes, 3 h, 3 µM; remark: listed apart in the source
[36] = cynomolgus monkey, hepatocytes, 3 h, 3 µM; remark: listed apart in the source
[37] = dog, hepatocytes, 3 h, 3 µM; remark: listed apart in the source
[38] = rat, hepatocytes, 3 h, 3 µM; remark: listed apart in the source
[39] = mouse, hepatocytes, 3 h, 3 µM; remark: listed apart in the source
[40] = mouse, in vivo, po, 50 mg/kg, 1 h
[41] = mouse, in vivo, po, 50 mg/kg, 1 h; remark: listed apart in the source
[42] = mouse, in vivo, po, 50 mg/kg, 1 h; remark: listed apart in the source
[43] = mouse, in vivo, po, 50 mg/kg, 1 h; remark: listed apart in the source
[44] = mouse, in vivo, po, 50 mg/kg, 1 h; remark: listed apart in the source
[45] = mouse, in vivo, po, 50 mg/kg, 1 h; remark: listed apart in the source
[46] = mouse, in vivo, po, 50 mg/kg, 1 h; remark: listed apart in the source
[47] = mouse, in vivo, po, 50 mg/kg, 1 h; remark: listed apart in the source
[48] = mouse, in vivo, po, 50 mg/kg, 1 h; remark: listed apart in the source
[49] = mouse, in vivo, po, 50 mg/kg, 1 h; remark: listed apart in the source
[50] = mouse, in vivo, po, 50 mg/kg, 1 h; remark: listed apart in the source
[51] = mouse, in vivo, po, 50 mg/kg, 6 h
[52] = mouse, in vivo, iv, 10 mg/kg
[53] = mouse, in vivo, iv, 10 mg/kg; remark: listed apart in the source
[54] = human, hepatocytes, 3 h, 3 µM; remark: listed apart in the source
[55] = cynomolgus monkey, hepatocytes, 3 h, 3 µM; remark: listed apart in the source
[56] = dog, hepatocytes, 3 h, 3 µM; remark: listed apart in the source
[57] = rat, hepatocytes, 3 h, 3 µM; remark: listed apart in the source
[58] = mouse, hepatocytes, 3 h, 3 µM; remark: listed apart in the source
[59] = human, hepatocytes, 3 h, 3 µM; remark: listed apart in the source
[60] = cynomolgus monkey, hepatocytes, 3 h, 3 µM; remark: listed apart in the source
[61] = dog, hepatocytes, 3 h, 3 µM; remark: listed apart in the source
[62] = rat, hepatocytes, 3 h, 3 µM; remark: listed apart in the source
[63] = mouse, hepatocytes, 3 h, 3 µM; remark: listed apart in the source
in vivo [64] = settings: ICR, mouse, iv, 2 mg/kg
in vivo [65] = settings: ICR, mouse, iv, 2 mg/kg; remark: listed apart in the source
in vivo [66] = settings: ICR, mouse, iv, 2 mg/kg; remark: listed apart in the source
in vivo [67] = settings: ICR, mouse, iv, 2 mg/kg; remark: listed apart in the source
in vivo [68] = settings: ICR, mouse, po, 5 mg/kg
in vivo [69] = settings: ICR, mouse, po, 5 mg/kg; remark: listed apart in the source
in vivo [70] = settings: ICR, mouse, po, 5 mg/kg; remark: listed apart in the source
in vivo [71] = settings: ICR, mouse, po, 5 mg/kg; remark: listed apart in the source
in vivo [72] = settings: ICR, mouse, po, 5 mg/kg; remark: listed apart in the source
Description: Mean residence time in ICR mouse at 5 mg/kg, po after 1 hr to 24 hrs by LC-MS analysis

in vivo [73] = settings: ICR, mouse, po, 5 mg/kg; remark: listed apart in the source
Description: Half life in ICR mouse at 5 mg/kg, po measured up to 24 hrs by LC-MS analysis

in vivo [74] = settings: ICR, mouse, po, 5 mg/kg; remark: listed apart in the source
in vivo [75] = settings: ICR, mouse, other tissue
in vivo [76] = settings: ICR, mouse, other tissue; remark: listed apart in the source
in vivo [77] = settings: ICR, mouse, other tissue; remark: listed apart in the source
in vivo [78] = settings: ICR, mouse, other tissue; remark: listed apart in the source
in vivo [79] = settings: ICR, mouse, other tissue; remark: listed apart in the source
in vivo [80] = settings: ICR, mouse, other tissue; remark: listed apart in the source
in vivo [81] = settings: female, ICR, mouse, other tissue
in vivo [82] = settings: female, ICR, mouse, other tissue; remark: listed apart in the source
in vivo [83] = settings: male, ICR, mouse, other tissue
in vivo [84] = settings: ICR, mouse, brain

Histone deacetylase 1, sequence (Q13547 whole entry): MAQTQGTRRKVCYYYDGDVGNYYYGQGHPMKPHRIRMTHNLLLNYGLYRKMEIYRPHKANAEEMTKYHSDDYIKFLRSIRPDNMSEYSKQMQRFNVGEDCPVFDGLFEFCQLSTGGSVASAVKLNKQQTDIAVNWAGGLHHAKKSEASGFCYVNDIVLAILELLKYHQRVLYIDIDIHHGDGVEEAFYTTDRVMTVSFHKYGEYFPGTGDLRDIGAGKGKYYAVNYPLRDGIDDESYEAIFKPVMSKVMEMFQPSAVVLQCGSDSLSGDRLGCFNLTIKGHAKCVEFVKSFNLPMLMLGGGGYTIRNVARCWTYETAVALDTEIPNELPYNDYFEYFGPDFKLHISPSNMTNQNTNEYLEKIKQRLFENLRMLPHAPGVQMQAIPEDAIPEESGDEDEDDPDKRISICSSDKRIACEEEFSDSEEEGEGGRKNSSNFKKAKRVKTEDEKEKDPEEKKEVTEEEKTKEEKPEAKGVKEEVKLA
Histone deacetylase 4, sequence (P56524 whole entry): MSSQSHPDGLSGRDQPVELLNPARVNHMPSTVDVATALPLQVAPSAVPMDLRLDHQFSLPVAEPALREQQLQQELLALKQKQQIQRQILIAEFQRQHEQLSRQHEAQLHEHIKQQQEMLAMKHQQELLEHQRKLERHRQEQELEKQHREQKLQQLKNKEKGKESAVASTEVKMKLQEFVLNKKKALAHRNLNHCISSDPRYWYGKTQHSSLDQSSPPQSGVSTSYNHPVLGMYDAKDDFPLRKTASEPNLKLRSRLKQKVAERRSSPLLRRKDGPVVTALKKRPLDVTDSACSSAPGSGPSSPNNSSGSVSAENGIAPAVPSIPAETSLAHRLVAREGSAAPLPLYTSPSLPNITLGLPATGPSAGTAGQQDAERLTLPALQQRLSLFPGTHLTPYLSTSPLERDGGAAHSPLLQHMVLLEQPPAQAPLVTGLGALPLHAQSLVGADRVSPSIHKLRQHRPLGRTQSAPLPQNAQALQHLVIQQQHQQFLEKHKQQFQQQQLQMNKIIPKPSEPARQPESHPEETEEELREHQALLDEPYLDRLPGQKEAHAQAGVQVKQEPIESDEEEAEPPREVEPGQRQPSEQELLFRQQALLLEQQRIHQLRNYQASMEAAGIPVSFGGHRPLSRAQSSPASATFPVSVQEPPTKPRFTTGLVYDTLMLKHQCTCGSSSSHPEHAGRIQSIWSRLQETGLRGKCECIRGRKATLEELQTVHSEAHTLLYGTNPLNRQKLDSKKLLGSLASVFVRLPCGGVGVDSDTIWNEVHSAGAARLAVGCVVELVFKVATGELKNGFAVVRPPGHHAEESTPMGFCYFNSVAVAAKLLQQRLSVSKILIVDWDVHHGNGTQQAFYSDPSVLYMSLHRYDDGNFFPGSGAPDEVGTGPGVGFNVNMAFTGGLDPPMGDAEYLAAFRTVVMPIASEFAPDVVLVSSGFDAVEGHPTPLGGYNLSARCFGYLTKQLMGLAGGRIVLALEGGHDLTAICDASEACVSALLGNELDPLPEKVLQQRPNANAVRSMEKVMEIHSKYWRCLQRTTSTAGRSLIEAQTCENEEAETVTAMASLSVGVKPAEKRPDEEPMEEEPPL
Histone deacetylase 2, sequence (Q92769 whole entry): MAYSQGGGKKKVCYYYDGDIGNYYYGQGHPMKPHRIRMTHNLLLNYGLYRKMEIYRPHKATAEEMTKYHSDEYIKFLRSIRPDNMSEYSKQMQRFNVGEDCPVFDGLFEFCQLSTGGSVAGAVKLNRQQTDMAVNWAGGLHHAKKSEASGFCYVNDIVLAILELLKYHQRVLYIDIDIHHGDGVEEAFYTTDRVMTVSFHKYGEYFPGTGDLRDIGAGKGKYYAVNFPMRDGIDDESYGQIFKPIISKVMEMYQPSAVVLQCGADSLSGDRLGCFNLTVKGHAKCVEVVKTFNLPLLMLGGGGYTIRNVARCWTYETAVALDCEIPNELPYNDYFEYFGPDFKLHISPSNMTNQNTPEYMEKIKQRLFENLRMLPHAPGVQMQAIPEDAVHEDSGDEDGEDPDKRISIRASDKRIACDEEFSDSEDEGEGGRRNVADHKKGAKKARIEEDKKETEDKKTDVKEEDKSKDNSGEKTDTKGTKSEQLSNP

SMILES: C[C@H](NC(=O)c1nc(-c2ncc(-c3ccccc3)s2)sc1C1CC1)c1ccc(C(=O)NO)cc1
IC50 (Histone deacetylase 2): 13.3 nM
IC50 (Histone deacetylase 4): > 20000 nM
IC50 (Histone deacetylase 5): 16700 nM
IC50 (Histone deacetylase 7): > 20000 nM
IC50 (Histone deacetylase 8): 16.8 nM
IC50 (Histone deacetylase 9): > 20000 nM
IC50 [1]: 1.98 nM
IC50 (Histone deacetylase 11): 77.8 nM
IC50 [2]: > 20000 nM
IC50 [3]: > 20000 nM
IC50 [4]: > 20000 nM
IC50 (Bel-7402): 80.8 nM
IC50 (NCI-H1975): 66.4 nM
IC50 (EBC-1): 110 nM
IC50 (MCF7): 58.5 nM
IC50 (MDA-MB-231): 76.6 nM
IC50 (T47D): 40.8 nM
IC50 (NCI-N87): 28.3 nM
IC50 (HT-29 [5]): 166 nM
T/C (HT-29 [6]): 59.72%
T/C (HT-29 [7]): 37.56%
T/C (HT-29 [8]): 60.58%
AUC [9]: 105642 ng·h/g
AUC [10]: 8795 ng·h/g
AUC [11]: 6079 ng·h/g
AUC [12]: 5185 ng·h/g
AUC [13]: 4692 ng·h/g
AUC [14]: 3438 ng·h/g
AUC [15]: 2622 ng·h/g
AUC [16]: 1964 ng·h/g
AUC [17]: 1472 ng·h/g
AUC [18]: 698 ng·h/g
AUC [19]: 599 ng·h/g
Drug metabolism [20]: Metabolite_Detected
Drug metabolism [21]: Metabolite_Detected
Drug metabolism [22]: Metabolite_Detected
Drug metabolism [23]: Metabolite_Detected
Drug metabolism [24]: Metabolite_Detected
Drug metabolism [25]: Metabolite_Detected
Drug metabolism [26]: Metabolite_Detected
Drug metabolism [27]: Metabolite_Detected
Drug metabolism [28]: Metabolite_Detected
Drug metabolism [29]: Metabolite_Detected
Drug metabolism [30]: Metabolite_Detected
Drug metabolism [31]: Metabolite_Detected
Drug metabolism [32]: Metabolite_Detected
Drug metabolism [33]: Metabolite_Detected
Drug metabolism [34]: Metabolite_Detected
Drug metabolism [35]: Metabolite_Detected
Drug metabolism [36]: Metabolite_Detected
Drug metabolism [37]: Metabolite_Detected
Drug metabolism [38]: Metabolite_Detected
Drug metabolism [39]: Metabolite_Detected
Drug uptake [40]: Active
Drug uptake [41]: Active
Drug uptake [42]: Active
Drug uptake [43]: Active
Drug uptake [44]: Active
Drug uptake [45]: Active
Drug uptake [46]: Active
Drug uptake [47]: Active
Drug uptake [48]: Active
Drug uptake [49]: Active
Drug uptake [50]: Active
Drug uptake [51]: Active
Drug uptake [52]: Active
Drug uptake [53]: Active
Drug metabolism [54]: Metabolite_Notdetected
Drug metabolism [55]: Metabolite_Notdetected
Drug metabolism [56]: Metabolite_Notdetected
Drug metabolism [57]: Metabolite_Notdetected
Drug metabolism [58]: Metabolite_Notdetected
Drug metabolism [59]: Metabolite_Notdetected
Drug metabolism [60]: Metabolite_Notdetected
Drug metabolism [61]: Metabolite_Notdetected
Drug metabolism [62]: Metabolite_Notdetected
Drug metabolism [63]: Metabolite_Notdetected
AUC(0-t) (in vivo [64]): 1080 ng·h/mL
AUC(0-inf) (in vivo [65]): 1250 ng·h/mL
MRT (in vivo [66]): 10.4 h
half-life (in vivo [67]): 8.67 h
Tmax at 24 h (in vivo [68]): 0.67 h
Cmax (in vivo [69]): 138 ng/mL
AUC(0-t) (in vivo [70]): 924 ng·h/mL
AUC(0-inf) (in vivo [71]): 944 ng·h/mL
MRT (in vivo [72]): 5.22 h
half-life at 24 h (in vivo [73]): 4.23 h
bioavailability (in vivo [74]): 34 to 34.4%
Kp (in vivo [75]): 176
Kp (in vivo [76]): 14.7
Kp (in vivo [77]): 10.2
Kp (in vivo [78]): 8.66
Kp (in vivo [79]): 7.84
Kp (in vivo [80]): 5.74
Kp (in vivo [81]): 4.38
Kp (in vivo [82]): 3.28
Kp (in vivo [83]): 2.46
Kp (in vivo [84]): 1.17

SMILES: Cc1[nH]c2ccccc2c1CCNCc1ccc(/C=C/C(=O)NO)cc1 [PANOBINOSTAT]
IC50 [2]: > 20000 nM
IC50 [3]: > 20000 nM
IC50 [4]: > 20000 nM
IC50 (MCF7): 9 nM
T/C (HT-29 [6]): 93.85%

The remaining lines, values ahead:

IC50 (Histone deacetylase 1): 163 nM
SMILES: CC(C)(NC(=O)c1nc(-c2nccs2)sc1C1CC1)c1ccc(C(=O)NO)cc1

IC50 (Histone deacetylase 1): 660 nM
SMILES: CC(C)Cc1sc(-c2nccs2)nc1C(=O)Nc1ccc(/C=C/C(=O)NO)cc1

IC50 (Histone deacetylase 1): 22.3 nM
SMILES: O=C(NO)c1ccc(C2(NC(=O)c3nc(-c4nccs4)sc3C3CC3)CC2)cc1
